Data from patent US8652509B2, “Method of wound hemostasis using liquid gallium nitrate” (priority 2009, dated 2014).
Entries after “also recorded” stand apart in the source; their conditions may differ.

How the values were obtained:
[1] = test system: open wound; test: Topical application of aqueous gallium nitrate to accidental open bleeding wounds (Experiments 1-3); assay type: in vivo, human
Description: Unless otherwise specified, all experiments below used an aqueous solution of unbuffered Ga(NO3)3, dissolved in water in the 5% to 15% weight/volume concentration range, specifically as stated. Note that none of these formulations contained citrate.
A first human subject sustained an accidental 1-inch long gash to the index finger, deep enough to extend below the epidermis, but stopping short of the bone. The wound bled profusely and hurt intensely. Subject immediately inserted the finger into a solution of concentrated (non-medical) 14% aqueous gallium nitrate. […] Subject kept the finger in the 14% aqueous gallium nitrate solution for 10 minutes. […] A regular bandage was then applied. Although a wound of this depth would normally require stitches, by the time further medical treatment was sought, stitches were no longer deemed necessary.
A different (second) human subject sustained an accidental 1-inch wide gash to the chin which again penetrated the epidermis, stopped short of the bone, and which bled very profusely. The wound was treated by liberally applying the same type of 14% gallium nitrate solution used in Experiment 1.
A third human subject sustained an accidental 2-inch wide and quite deep gash (penetrating the epidermis, stopping short of the bone) to the top of the forehead, accompanied by profuse bleeding. A less concentrated (7% aqueous gallium nitrate) topical solution was then applied.

[2] = test system: bleeding time; test: Bleeding time test, forearm puncture with #11 scalpel blade (Experiment 4); assay type: in vivo, human
Description: The bleeding time test measures the function of a number of coagulation pathway parameters, including platelet function, extrinsic coagulation pathway and intrinsic coagulation pathway. Here, in order to better understand the various coagulation pathways that might be impacted by gallium nitrate, a bleeding function experiment was done to see if the gallium nitrate effect worked for patients (e.g. Warfarin or Coumadin™ patients) with a suppressed extrinsic coagulation pathway.
In this experiment, a first subject (Subject 1) was treated with Coumadin™ (Warfarin) to achieve a therapeutic dose with an International Normalized Ratio (INR) of 2.5.
Subject 1: To induce bleeding, the first INR 2.5 subject's mid forearm was punctured with a #11 scalpel blade to a depth of 4 mm. This produced prompt flow of blood in the form of a steady slow blood stream down the subject's forearm. This blood flow was gently wiped with gauze every 30 seconds without applying pressure. Under these control (no gallium nitrate) conditions, the bleeding stopped at 122 seconds.
To investigate the effect of gallium nitrate, a second puncture was then made to the arm of the INR 2.5 subject following the same methods as for the first puncture. However in this portion of the experiment, at 5 seconds after puncture, once blood flow had commenced, a gallium nitrate (14%) solution was applied using a soaked cotton-ball. In contrast to the previous no-gallium control, in this gallium nitrate application experiment, blood flow ceased after only 35 seconds. A small pool of blood stayed about incision site. Thus for an INR 2.5 patient, gallium nitrate reduced bleeding time from a control of 122 seconds to a value of only 35 seconds, which is a very substantial decrease.
Subject 2: A mid forearm puncture was made following the same methods as described above. This first puncture was gently wiped with gauze every 30 seconds without applying pressure. In this no gallium nitrate control condition, bleeding stopped at 268 seconds
To investigate the effect of gallium nitrate, a second puncture was then made following the same methods as for the first puncture. At 5 seconds after puncture, once blood flow had commenced, a gallium nitrate (14%) solution was applied using a soaked cotton-ball. By 77 seconds the flow had ceased and a visible clot had started to form.

`O=[N+]([O-])[O-].O=[N+]([O-])[O-].O=[N+]([O-])[O-].[Ga+3]` [gallium nitrate] was tested, and the wound healing ([1]; Experiment 1: 14% aqueous gallium nitrate, finger gash, regular bandage afterwards) was “healed completely within a matter of days”, the pain ([1]; Experiment 1: 14% aqueous gallium nitrate, finger kept in solution for 10 minutes) was “near immediate reduction in pain; also recorded: no pain was felt” and the bleeding stopped ([1]; Experiment 1: first human subject, 1-inch gash to index finger, finger inserted into 14% aqueous gallium nitrate, no citrate) was “stopped within a few seconds”. For the same molecule, the resulting clot ([1]; Experiment 2: 14% gallium nitrate solution, chin gash, examined by treating physician shortly thereafter) was “unusual strength”, the bleeding stopped ([1]; Experiment 2: second human subject, 1-inch gash to chin, 14% gallium nitrate solution liberally applied) was “rapidly stopped bleeding” and the bleeding stopped ([1]; Experiment 3: third human subject, 2-inch deep gash to forehead, 7% aqueous gallium nitrate topical) was “stopped bleeding unusually quickly”. The clot formation ([1]; summary of the accidental event: aqueous 14% gallium nitrate on a large open wound immediately after wound formation) was “unexpectedly rapid clot formation”, the visible clot formation ([2]; Coumadin treated subject, 14% solution) was “did not form a visible clot” and the “bleeding time (blood flow ceased)” value ([2]; Subject 1, Coumadin (Warfarin) treated, INR 2.5, 14% solution applied with soaked cotton-ball 5 seconds after puncture) was 35 s. The “bleeding time (flow ceased)” value ([2]; Subject 2, non-Coumadin treated, 14% solution applied with soaked cotton-ball 5 seconds after puncture) was 77 s, the “reduction of bleeding time compared to no-gallium nitrate control” value ([2]; both the Warfarin/Coumadin treated and the non-treated subject, 14% solution) was “approximately 75%” and the visible clot formation ([2]; non-Coumadin treated subject, 14% solution) was “formed a very visible brown clot”.
